Source: patent publication US20240400572A1, “COMPOUNDS AND METHODS FOR TREATING CANCERS THAT ARE MGMT DEFICIENT REGARDLESS OF MMR STATUS” (Yale University, priority 2021, published 2024)

Columns and labels:
[1] = test system: γH2AX, 53BP1 and pRPA foci in LN229 MGMT+/−, MMR+/− cells; experiment: Immunofluorescence foci assays; type: cell-based, human; details: 20 μM; for γH2AX, 53BP1 and pRPA foci formation (in words): 2 to 48 h; for DDR foci across cell cycle phases (in words): 48 h, G1, S and G2 phases
Description: Immunofluorescence Foci Assays. High-throughput immunofluorescence foci assays were performed at the Yale Center for Molecular Discovery (YCMD). Cells were seeded at 2000 cells/well in black polystyrene flat bottom 384-well plates (Greiner Bio-One) and allowed to adhere overnight. Compound addition was performed utilizing a Labcyte Echo 550 liquid handler (Beckman Coulter), with 6 replicates per test condition and 12 replicates per control condition. Following drug incubation, cells were fixed and stained for phospho-SER139-H2AX (γH2AX), 53BP1, or phospho-SER33-RPA2 (pRPA) as follows.
γH2AX protocol: Cells were fixed with 4% paraformaldehyde in 1×PBS for 15 min, washed twice with 1×PBS, incubated in extraction buffer (0.5% Triton X-100 in 1×PBS) for 10 min, washed twice with 1×PBS, and incubated in blocking buffer (Blocker Casein in PBS, Thermo Scientific+5% goat serum, Life Technologies) for 1 h. Mouse anti-phospho-histone H2A.X (Ser139) antibody (clone JBW301, Millipore, 05-636) was added 1/1000 in blocking buffer at 4° C. overnight. After washing with 1×PBS, cells were incubated with goat anti-mouse IgG (H+L) highly cross-adsorbed secondary antibody, Alexa Fluor 647 (Invitrogen, A-21236) 1/500 and with 1 μg/mL Hoechst nucleic acid dye in blocking buffer for 2 h, and then washed with 1×PBS.
53BP1 protocol: Cells were fixed with 4% paraformaldehyde+0.02% Triton X-100 in 1×PBS for 20 minutes, washed twice with 1×PBS, and incubated in blocking buffer (10% FBS, 0.5% Triton X-100 in 1×PBS) for 1 h. Rabbit anti-53BP1 antibody (Novus Biologicals, NB100-904) was added 1/1000 in blocking buffer at 4° C. overnight. After washing with 1×PBS, cells were incubated with goat anti-rabbit IgG (H+L) highly cross-adsorbed secondary antibody, Alexa Fluor 647 (Invitrogen, A-21245) 1/500 and with 1 μg/mL Hoechst nucleic acid dye in blocking buffer for 2 h, and then washed with 1×PBS.
pRPA protocol: Cells were washed twice with 1×PBS on ice, incubated in extraction buffer (0.5% Triton X-100 in 1×PBS) for 5 min on ice, fixed with 3% paraformaldehyde+2% sucrose in 1×PBS for 15 min at 23° C., incubated again in extraction buffer for 5 min on ice, and incubated in blocking buffer (2% BSA, 10% milk, 0.1% Triton X-100 in 1×PBS) for 1 h at 23° C. Rabbit anti-phospho-RPA2 (S33) antibody (Bethyl Laboratories, A300-246A) was added 1/1000 in blocking buffer at 4° C. overnight. […]
Additional small scale immunofluorescence assays used for extended time course analysis of γH2AX foci were performed in Millicell EZSLIDE 8-well chamber slides (Millipore). […] Imaging was performed on a Keyence BZ-X800 fluorescence microscope at 40× magnification. […]

[2] = test system: LN229 WT and LN229-MSH2^− flank tumors; experiment: Xenograft Experiments (FIG. 11); type: in vivo, mouse; details: 5 mg/kg gavage, Mondays, Wednesdays and Fridays for 3 weeks
Description: Xenograft Experiments (FIG. 11): All animal studies were approved by the Institutional Animal Use and Care Committee and performed in accordance with the Guide for the Care and Use of Laboratory Animals. LN229 WT and LN229-MSH2^− cell lines were maintained in DMEM media supplemented with 10% fetal bovine serum. Three-four-week-old female athymic nude Foxnnu mice were obtained from Envigo and each mouse was inoculated subcutaneously with tumor cells (4.5-5×10^6) in 0.1 ml of PBS with Matrigel (1:1). Wild type cells were injected on the right flank and mutant cells were injected on the left flank. The tumors were then grown to a mean size of approximately 50-100 mm3 and the mice were then split into groups and treated as detailed in FIG. 7. Gavage doses of 5 mg/kg of KL-50 or TMZ were prepared by diluting stocks in DMSO with 10% cyclodextrin. Compound was administered each day of dosing at a volume of 100 μL/mouse. Mice were treated for 3 weeks with dosing on Mondays, Wednesdays and Fridays. Tumors were measured 3 times a week during treatment and during the washout period of 2 weeks. Xenograft tumors were measured by calipers and volume was calculated using the equation for ellipsoid volume: Volume=0.523×(length)×(width)^2. Statistical Analysis: Analysis of variance (ANOVA) was used to test for significant differences between groups. Post-hoc Bonferroni multiple comparison test analysis was used to determine significant differences among means. All statistical analysis was accomplished using Graph Pad Prism 8.2.0 software.

| Compound | γH2AX, 53BP1 and pRPA foci formation (in words) [1] | DDR foci across cell cycle phases (in words) [1] | activity in MGMT−/MMR (MSH2)− tumors (in words) [2] | activity in MGMT−/MMR (MSH2)+ tumors (in words) [2] |
| --- | --- | --- | --- | --- |
| Cn1nnc2c(C(N)=O)ncn2c1=O [TMZ, temozolomide, reference compound] | comparable response in MGMT− cells, but this was abolished in the absence of functional MMR | did not observe foci induction or micronuclei formation in MGMT−/MMR− cells | ineffective | – |
| NC(=O)c1ncn2c(=O)n(CCF)nnc12 [KL-50, 3-(2-fluoroethyl)-4-oxo-3H,4H-imidazo[4,3-d][1,2,3,5]tetrazine-8-carboxamide] | maximal foci response at 48 h, specifically in MGMT− cells and irrespective of MMR status | foci formation primarily in the S- and G2-phases of the cell cycle | surprisingly effective | comparable activity to TMZ |
